In patent US20230414511A1, “COMPOSITIONS AND METHODS FOR DEEP DERMAL DRUG DELIVERY” (ARCUTIS BIOTHERAPEUTICS, INC., priority 2020, published 2023):

How the values were obtained:
[1] = Particle size distribution of SHR0302 by laser diffraction (Malvern); type: physicochemical; details: SHR0302 used in Example 1, FIG. 1
Description: In the pharmaceutical compositions of the present invention, the active ingredient is present as small particles. Particle size of the drug can be assessed using laser diffraction methods. Laser diffraction is recognized by standards and guidance agencies including ISO and ASTM and is widely used to determine particle size distributions. In conducting the assessment, the sample is passed through a laser beam, which results in laser light scattered at a range of angles. Detectors placed at fixed angles measure the intensity of light scattered at that position. A mathematical model is then applied to generate a particle size distribution. The particle size values reported herein are determined by using a liquid or wet dispersion method.
In particle size determinations, the median value is defined as the value where half of the population resides above this point, and half resides below this point. For particle size distributions the median is called the D50. The D50 is the size that splits the distribution with half above and half below this diameter. The distribution width may also be characterized by citing one, two or three values on the x-axis, typically some combination of the D10, D50, and D90. The D50, the median, has been defined above as the diameter where half of the population lies below this value. Similarly, 90 percent of the distribution lies below the D90, and 10 percent of the population lies below the D10.
A pharmaceutical composition comprising 3% SHR0302 suspended in dimethicone was prepared. The primary particle size distribution of the SHR0302 is characterized by a D10 value of less than about 0.25 μm; a D50 value of less than about 0.7 μm; and a D90 value of less than about 5 μm. The pharmaceutical composition was a transparent solution due to the particles being too small to scatter visible light. A Malvern Metasizer Model 3000 using the Hydro MV dispersion unit was used to determine the particle size distribution profile of SHR0302. […]

[2] = biological target: JAK1 (Homo sapiens, UniProt P23458); details: cited from earlier work
[3] = orally administrated, women; cited from earlier work

JAK1, sequence (P23458 whole entry): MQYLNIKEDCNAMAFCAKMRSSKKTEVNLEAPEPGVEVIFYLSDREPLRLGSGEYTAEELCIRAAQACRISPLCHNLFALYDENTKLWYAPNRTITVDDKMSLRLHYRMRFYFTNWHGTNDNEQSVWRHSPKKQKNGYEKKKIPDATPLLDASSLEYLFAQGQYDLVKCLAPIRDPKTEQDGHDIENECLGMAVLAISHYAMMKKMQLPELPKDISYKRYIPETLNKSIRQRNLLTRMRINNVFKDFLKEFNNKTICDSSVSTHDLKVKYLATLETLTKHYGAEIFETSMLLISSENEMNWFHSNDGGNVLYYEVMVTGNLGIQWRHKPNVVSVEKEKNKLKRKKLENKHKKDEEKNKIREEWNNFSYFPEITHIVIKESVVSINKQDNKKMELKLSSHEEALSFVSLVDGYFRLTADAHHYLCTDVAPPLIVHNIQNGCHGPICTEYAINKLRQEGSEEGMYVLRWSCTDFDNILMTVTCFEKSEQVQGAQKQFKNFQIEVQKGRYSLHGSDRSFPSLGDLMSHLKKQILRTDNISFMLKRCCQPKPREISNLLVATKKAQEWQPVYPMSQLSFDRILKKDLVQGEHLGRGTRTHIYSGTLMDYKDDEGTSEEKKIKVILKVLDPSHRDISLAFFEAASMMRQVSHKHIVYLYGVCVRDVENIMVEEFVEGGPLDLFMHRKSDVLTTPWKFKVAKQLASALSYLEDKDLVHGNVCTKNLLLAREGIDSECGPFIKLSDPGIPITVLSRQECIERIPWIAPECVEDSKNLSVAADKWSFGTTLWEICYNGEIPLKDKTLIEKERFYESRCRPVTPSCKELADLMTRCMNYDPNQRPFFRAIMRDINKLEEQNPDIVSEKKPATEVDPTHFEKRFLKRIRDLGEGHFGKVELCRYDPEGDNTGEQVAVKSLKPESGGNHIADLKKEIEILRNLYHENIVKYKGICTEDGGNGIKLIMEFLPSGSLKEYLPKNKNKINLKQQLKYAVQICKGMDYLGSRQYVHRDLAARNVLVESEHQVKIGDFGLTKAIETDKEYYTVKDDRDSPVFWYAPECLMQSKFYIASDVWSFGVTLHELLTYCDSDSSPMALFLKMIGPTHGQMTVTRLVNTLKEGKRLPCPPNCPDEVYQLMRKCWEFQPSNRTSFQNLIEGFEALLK

Row | primary particle size D10 [1] | primary particle size D50 [1] | primary particle size D90 [1] | SMILES | inhibition of JAK1 [2] | efficacy in treatment of acne [3]
1 | less than 0.25 μm | less than 0.7 μm | less than 5 μm | COc1nsc(NC(=O)N2C[C@H]3C[C@H](N(C)c4ncnc5[nH]ccc45)C[C@H]3C2)n1 [SHR0302, (3aR,5S,6aS)-N-(3-methoxyl-1,2,4-thiadiazol-5-yl)-5-(methyl(7H-pyrrolo[2,3-d]pyrimidin-4-yl)amino)hexahydrocyclopenta[c]pyrrole-2(1H)-carboxamide] | potent | 
2 |  |  |  | CC(=O)S[C@@H]1CC2=CC(=O)CC[C@]2(C)[C@H]2CC[C@@]3(C)[C@@H](CC[C@@]34CCC(=O)O4)[C@H]12 [spironolactone, 17-hydroxy-7α-mercapto-3-oxo-17α-pregn-4-ene-21-carboxylic acid γ-lactone acetate] |  | efficacious
